Earlier results, collected in patent US12151062B2, “Compositions and devices to administer pharmaceutical compositions nasally” (BOARD OF REGENTS, THE UNIVERSITY OF TEXAS SYSTEM, priority 2016, dated 2024).
Like-named read-outs stand apart in the source and are kept apart here. Values belong to the molecule of their own block, whether it stands above or below them.

How the values were obtained:
[1] = not given; remark: listed apart in the source
[2] = for DTE relative to nasal solution alone: mucoadhesive microemulsion i.n.
[3] = PLGA nanoparticles
[4] = test system: P3 component of the event-related potentials; conditions: human subjects
[5] = thermosensitive gel i.n. compared to nasal solution in normal saline; rabbits
[6] = mice
[7] = not given; remark: listed apart in the source
brain tumor = conditions: mucoadhesive solution i.n.; rats pre-dosed with acetazolamide
[8] = thermoreversible gel with chitosan and glycerophosphate
[9] = nasal administration with vasoconstrictor phenylephrine

- direct transport efficiency (DTE) ([1]; mouse, in vivo): 207.23
Molecule: Nc1c2c(nc3ccccc13)CCCC2 [Tacrine]

- brain AUC compared to curcumin injection ([2]; in situ gelling microemulsion i.n.): three times
Molecule: COc1cc(/C=C/C(=O)CC(=O)/C=C/c2ccc(O)c(OC)c2)ccc1O [Curcumin]

- brain AUCs compared to intravenous administration of the microemulsion ([2]; intranasal mucoadhesive microemulsion, rats): 2.43 times
- DTE ([2]; mucoadhesive microemulsion (polycarbophil) i.n., rats): 320.69%;
- DTE ([2]; mucoadhesive microemulsion (polycarbophil) i.n., rats, listed as paliperidone): 320.69%
- DTE relative to nasal solution alone ([2]; rats): 1.74-fold
- DTE relative to nasal solution alone ([2]; rats, listed as paliperidone): 1.74 fold
Molecule: Cc1nc2n(c(=O)c1CCN1CCC(c3noc4cc(F)ccc34)CC1)CCCC2O (stereo not drawn) [Paliperidone]

- DTE ([1]; thermoreversible gel i.n., mice): DTE - 0.98
- brain AUC-to-plasma AUC ratio compared to intravenous therapy ([2]; hypromellose and Carbopol 974P gel i.n.): 4.31 times
- systemic bioavailability ([2]; intranasal formulation compared to intravenous carbamazepine solution): 100%
Molecule: NC(=O)N1c2ccccc2C=Cc2ccccc21 [Carbamazepine]
- brain levels in the intranasal group ([2]; even at early time points, vs intravenous solution): unable to detect significantly higher brain levels

- increase in the AUC after intranasal use compared to intravenous use ([2]; depending on the section of brain, rats): 54-121 fold
- DTE for Cerebrum ([2]; solution (PBS pH 8) i.n., rats): 120
- DTE for Olfactory Bulb ([2]; solution (PBS pH 8) i.n., rats): 127
- log P [7]: −0.98
Molecule: Cc1nc2ccc(CN(C)c3ccc(C(=O)N[C@@H](CCC(=O)O)C(=O)O)s3)cc2c(=O)[nH]1 [Raltitrexed]

- increase in uptake compared to i.n. without acetazolamide ([2]; mucoadhesive solution i.n., rats pre-dosed with acetazolamide): 195%
- CSF AUC after nasal administration compared to intravenous administration ([2]; rat, in vivo, iv): greater than 13 fold
- DTE ([2]; solution i.n., rats): DTE- 21.7%
Molecule: CN(Cc1cnc2nc(N)nc(N)c2n1)c1ccc(C(=O)N[C@@H](CCC(=O)O)C(=O)O)cc1 [Methotrexate]
- reduction in brain tumor weight (brain tumor): 75%

- AUC in olfactory bulb after i.n. compared with i.v. treatment ([2]; microemulsion, rats): Higher AUC
- AUC in rest of brain after i.n. compared with i.v. treatment ([2]; microemulsion, rats): lower AUC
Molecule: COCCOC(=O)C1=C(C)NC(C)=C(C(=O)OC(C)C)C1c1cccc([N+](=O)[O-])c1 (stereo not drawn) [Nimodipine]

- brain concentrations compared to nerve growth factor dosed at the same concentration ([2]; intranasal): fivefold higher
Molecule: NCCc1ccc(O)c(O)c1 [dopamine]

- brain concentrations 30 minutes after administration ([2]; micellar formulation i.n., rats): about fivefold higher
Molecule: CN(C)CCc1c[nH]c2ccc(C[C@H]3COC(=O)N3)cc12 [Zolmitriptan]
- brain concentrations, 30 min up to 120 min ([2]; micellar nanocarrier i.n., rats): significantly higher brain concentrations up to 120 minutes

The next lines start with the molecule.

Molecule: hypocretin-1 (QPLPDCCRQKTCSCRLYELLHGAGNHAAGILTL; Orexin-A; UniProt O43612 34-66, looked up)
- amount delivered to the olfactory bulb (in vivo): significantly increased
- amount in the trigeminal nerve (in vivo): decreased amount
- amount of drug absorbed into the systemic circulation (in vivo): significantly decreased
- decrease in whole brain concentrations (in vivo): about 50%

Molecule: CC(C)C[C@H]1C(=O)N2CCC[C@H]2[C@]2(O)O[C@](NC(=O)[C@@H]3C=C4c5cccc6[nH]c(Br)c(c56)C[C@H]4N(C)C3)(C(C)C)C(=O)N12 [Bromocriptine]
- brain AUCs compared to intravenous administration of the nanoparticles ([1]; mouse, in vivo): over two-fold greater
- brain and plasma AUC values ([1]; mouse, in vivo): higher

Molecule: CCCN(CCC)CCc1cccc2c1CC(=O)N2 [Ropinirole]
- DTE ([2]; temperature sensitive in situ gel with chitosan and HPMC i.n., rats): DTE-10.4

Molecule: C[C@]12CC[C@@H]3c4ccc(O)cc4CC[C@H]3[C@@H]1CC[C@@H]2O [Estradiol]
- AUCCSF/AUCplasma ([2]; cyclodextrin formulation i.n., rats): 1.60
- AUCCSF/AUCplasma ([2]; i.v., rats): 0.61 from

Molecule: CNCC[C@H](Oc1cccc2ccccc12)c1cccs1 [Duloxetine]
- brain concentrations compared to intravenous administration of duloxetine solution ([2]; lipid nanocarrier i.n.): about eight times higher
- DTE ([2]; lipid nanocarrier i.n., rats): 757.14%
- DTE ([2]; lipid nanocarrier i.n., rats, listed as duloxetine): 757.14%
- DTE ([2]; solution i.n., rats): to 287.34%
- DTE ([2]; solution i.n., rats, listed as duloxetine): 287.34%

Molecule: Cc1cc2c(s1)Nc1ccccc1N=C2N1CCN(C)CC1 [Olanzapine]
- DTE ([2]; i.n. solution, rats): to 550%
- DTE ([2]; mucoadhesive nanoemulsion i.n., rats): DTE-890%
- DTE ([2]; nanomicellar carrier i.n., rats): 520.26%
- diffusion through sheep nasal mucosa, ex vivo [3]: slower

Molecule: NC(=O)CC[C@@H]1NC(=O)[C@H](Cc2ccccc2)NC(=O)[C@H](Cc2ccc(O)cc2)NC(=O)[C@@H](N)CSSC[C@@H](C(=O)N2CCC[C@H]2C(=O)N[C@@H](CCCN=C(N)N)C(=O)NCC(N)=O)NC(=O)[C@H](CC(N)=O)NC1=O [arginine vasopressin]
- P3 component of event-related potentials ([4]; after intranasal administration): significant increase
- plasma concentrations after intravenous administration compared to intranasal use [4]: higher
- P3 component of event-related potentials ([4]; intravenous administration, compared to placebo): did not show significant differences

Molecule: C#CCN[C@@H]1CCc2ccccc21 [Rasagiline]
- brain uptake from gel formulations [5]: significantly higher brain uptake

Molecule: GDF-5: growth differentiation factor 5
- midbrain concentrations compared to acidic solution ([2]; rat, in vivo): Significantly higher midbrain concentrations compared to acidic solution

Molecule: Cc1nc2n(c(=O)c1CCN1CCC(c3noc4cc(F)ccc34)CC1)CCCC2 [Risperidone]
- plasma AUC after intranasal administration vs intravenous ([1]; SLNs): lower
- locomotor activity ([6]; any of the tested formulations): significantly reduced
- locomotor activity compared to nanoemulsion given intravenously ([6]; nanoemulsion and mucoadhesive nanoemulsion given intranasally): significant reduction

Molecule: vasoactive intestinal peptide
- brain levels compared to solution given intranasally (in vivo): 5.6-7.7 fold
- brain levels compared to unmodified nanoparticles (in vivo): higher brain levels

Molecule: L-Tyr-D Arg
- amount delivered to the olfactory bulb [9]: significantly increased
- amount in the trigeminal nerve [9]: decreased amount
- amount of drug absorbed into the systemic circulation [9]: significantly decreased
- decrease in whole brain concentrations [9]: about 50%

Molecule: O=c1ccc2ccccc2o1 [coumarin]
- brain concentrations compared to unmodified PEG-PLA nanoparticles i.n. (wheat germ agglutinin conjugated PEG-PLA nanoparticles i.n.): two-fold increase

Molecule: CN(C)CCC=C1c2ccccc2COc2ccccc21 [Doxepin]
- duration of immobility, forced swim test [8]: no significant difference

Molecule: O=c1[nH]cc(F)c(=O)[nH]1 [5-FU]
- CSF levels with vs without pre-administration of acetazolamide ([2]; nasal delivery, rats): significantly higher CSF levels
- increased brain uptake compared to i.v. ([2]; solution i.n., rats pre-dosed with acetazolamide): 104%
